Measurements published in patent US9783505B2, “Substituted diaminopyrimidyl compounds, compositions thereof, and methods of treatment therewith” (Signal Pharmaceuticals, LLC, priority 2013, dated 2017).

How the values were obtained:
His-PKC-theta = target: T1, His-PKC-theta (Homo sapiens, UniProt Q04759); experiment: PKC-theta Assay (384-well time resolved fluorescence, IMAP TR-FRET); assay type: biochemical; conditions: read-out: Act. Level (IC50 in the PKC-theta Assay)
T1 construct: His; purchased Invitrogen
T1 sequence (Q04759 whole entry): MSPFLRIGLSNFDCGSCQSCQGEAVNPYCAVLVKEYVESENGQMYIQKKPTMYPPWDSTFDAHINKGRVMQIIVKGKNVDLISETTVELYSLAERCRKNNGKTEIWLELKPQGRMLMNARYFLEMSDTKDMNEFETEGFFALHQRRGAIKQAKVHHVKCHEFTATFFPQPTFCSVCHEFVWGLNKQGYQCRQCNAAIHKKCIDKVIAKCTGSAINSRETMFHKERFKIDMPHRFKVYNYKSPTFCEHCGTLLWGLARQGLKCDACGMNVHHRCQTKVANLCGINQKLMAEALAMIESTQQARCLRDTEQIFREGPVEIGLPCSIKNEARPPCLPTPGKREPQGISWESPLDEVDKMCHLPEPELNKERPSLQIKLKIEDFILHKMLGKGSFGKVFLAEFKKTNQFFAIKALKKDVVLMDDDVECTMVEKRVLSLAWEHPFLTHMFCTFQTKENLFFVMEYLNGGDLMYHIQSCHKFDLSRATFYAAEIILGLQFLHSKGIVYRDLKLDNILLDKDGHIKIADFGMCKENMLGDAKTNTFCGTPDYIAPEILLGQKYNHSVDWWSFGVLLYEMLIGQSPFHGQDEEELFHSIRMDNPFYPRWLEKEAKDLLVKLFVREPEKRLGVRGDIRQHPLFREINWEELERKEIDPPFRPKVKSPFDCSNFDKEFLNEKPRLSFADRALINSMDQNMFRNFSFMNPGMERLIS
Outline: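 Enzyme at 142 pM phosphorylated 200 nM Fam-S6 peptide with 10 μM ATP in 50 mM HEPES pH 7.6, 10 mM MgCl2, 1 mM DTT for 2 h at room temperature. Product was detected after overnight incubation with IMAP binding reagent and Tb donor by time-resolved FRET.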

PKC delta = target: T2, PKC delta (Homo sapiens, UniProt Q05655); experiment: PKC delta Assay (384-well time resolved fluorescence, IMAP TR-FRET); assay type: biochemical; conditions: selectivity for PKC-theta over PKC-delta
T2 construct: purchased Invitrogen
T2 sequence (Q05655 whole entry): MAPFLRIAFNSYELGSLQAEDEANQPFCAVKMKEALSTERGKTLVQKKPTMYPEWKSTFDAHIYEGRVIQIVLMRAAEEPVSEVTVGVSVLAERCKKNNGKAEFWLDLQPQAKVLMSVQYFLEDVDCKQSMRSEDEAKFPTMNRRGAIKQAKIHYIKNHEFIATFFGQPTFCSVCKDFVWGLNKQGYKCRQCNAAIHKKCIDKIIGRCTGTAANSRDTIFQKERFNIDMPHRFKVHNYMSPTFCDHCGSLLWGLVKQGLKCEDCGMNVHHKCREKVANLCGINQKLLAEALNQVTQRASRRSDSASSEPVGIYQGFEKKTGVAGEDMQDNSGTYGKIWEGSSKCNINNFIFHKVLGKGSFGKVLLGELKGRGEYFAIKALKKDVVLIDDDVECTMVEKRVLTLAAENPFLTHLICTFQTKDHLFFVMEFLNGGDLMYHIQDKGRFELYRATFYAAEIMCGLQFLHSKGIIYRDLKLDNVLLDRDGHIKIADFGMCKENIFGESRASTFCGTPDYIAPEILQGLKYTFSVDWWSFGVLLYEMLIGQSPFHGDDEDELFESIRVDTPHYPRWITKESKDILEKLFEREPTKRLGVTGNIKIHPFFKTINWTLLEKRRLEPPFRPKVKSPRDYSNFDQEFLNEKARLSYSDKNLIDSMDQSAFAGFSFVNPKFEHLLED
Outline: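 Phosphorylation of a Fam-labeled S6-derived peptide (200 nM) at 10 μM ATP by 1.5 nM kinase ran 2 hours at room temperature in HEPES pH 7.6 buffer containing MgCl2, DTT, Triton X-100, BSA and EDTA. Detection used IMAP progressive binding with Tb donor TR-FRET after overnight incubation.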

Row | IC50 (His-PKC-theta) [µM] | Compound | Sel. Level (ratio of IC50 PKC-delta/IC50 PKC-theta) (PKC delta)
1 | 0.8 to 2 | Cc1cccn1CCNc1ncc(C#N)c(N[C@H]2CC[C@@H](C(N)=O)CC2)n1 [Cmpd 324] | G (selectivity between 5- and 20-fold (selectivity level G))
2 | 0.1 to 0.8 | CN1C(=O)C(CCNc2ncc(C#N)c(N[C@@H]3C[C@H](C(N)=O)C3(C)C)n2)c2ccccc21 (stereo partly shown) [Cmpd 325] | F (selectivity of between 20- and 100-fold (selectivity level F))
3 | 0.1 to 0.8 | CC1(C)C[C@H](Nc2nc(NCCc3cc(C(F)(F)F)ccn3)ncc2C#N)CC[C@@H]1O [Cmpd 326] | G (selectivity between 5- and 20-fold (selectivity level G))
4 | 2 to 10 | COc1cccc(CCNc2ncc(C#N)c(N[C@H]3CC[C@@H](O)CC3)n2)n1 [Cmpd 327] | H (selectivity level of 5-fold or less (selectivity level H))
5 | 2 to 10 | CCOc1cc(CCNc2ncc(C#N)c(N[C@H]3CC[C@@H](O)CC3)n2)ccn1 [Cmpd 328] | H (selectivity level of 5-fold or less (selectivity level H))
6 | 0.1 to 0.8 | COc1cncc(CCNc2ncc(C#N)c(N[C@@H]3CC[C@H](O)C(C)(C)C3)n2)c1 [Cmpd 329] | G (selectivity between 5- and 20-fold (selectivity level G))
7 | 0.1 to 0.8 | CCOc1cc(CCNc2ncc(C#N)c(N[C@@H]3CC[C@H](O)C(C)(C)C3)n2)ccn1 [Cmpd 330] | G (selectivity between 5- and 20-fold (selectivity level G))
8 | 2 to 10 | COc1cncc(CCNc2ncc(C#N)c(N[C@H]3CC[C@@H](O)CC3)n2)c1 [Cmpd 331] | H (selectivity level of 5-fold or less (selectivity level H))
9 | < 0.1 | CC1(C)[C@H](Nc2nc(NCc3cncnc3OCC(F)F)ncc2C#N)C[C@]1(C)O [Cmpd 332] | E (selectivity (Sel. Level=ratio of IC50 PKC-delta/IC50 PKC-theta) of >100-fold (selectivity level E))
10 | < 0.1 | CC(F)(F)COc1ncncc1CNc1ncc(C#N)c(N[C@@H]2C[C@](C)(O)C2(C)C)n1 [Cmpd 333] | E (selectivity (Sel. Level=ratio of IC50 PKC-delta/IC50 PKC-theta) of >100-fold (selectivity level E))
11 | < 0.1 | CC1(C)[C@H](Nc2nc(NCc3cncnc3OCCC(F)(F)F)ncc2C#N)C[C@]1(C)O [Cmpd 334] | E (selectivity (Sel. Level=ratio of IC50 PKC-delta/IC50 PKC-theta) of >100-fold (selectivity level E))
